Source: ChEMBL document CHEMBL1201862, “PubChem BioAssay data set” (2004)
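Protocol summary: plate cells (96-well), add compound at 5 concentrations, incubate 48 h, interpolate endpoints linearly. At the GI50, growth is halved.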 The source made the active and inactive calls. No stated cut-off is given here; in the data, active = GI50 up to about 1.1 µM and inactive = higher.

Columns and labels:
Test in all cases: NCI-60 cell line screen, 48 h
CCRF-CEM = test system: CCRF-CEM
IGROV-1 = test system: IGROV-1
NCI-H460 = test system: NCI-H460
NCI-H522 = test system: NCI-H522
SF-295 = test system: SF-295
UACC-62 = test system: UACC-62
UO-31 = test system: UO-31

Measured: GI50

O=S(=O)(CF)OCCCCOS(=O)(=O)CF
inactive: CCRF-CEM 32.2 µM | IGROV-1 > 100 µM | NCI-H460 23.8 µM | NCI-H522 > 100 µM | SF-295 > 100 µM | UACC-62 > 100 µM | UO-31 > 100 µM
